From patent US10131652B2, “Pyrimidinyloxy benzene derivatives as herbicides” (E. I. DU PONT DE NEMOURS AND COMPANY, priority 2014, dated 2018)

Assays:
Type in all cases: in vivo
[1] = system: galium (catchweed bedstraw, Galium aparine); assay: Test B postemergence plant response
Outline: (§1)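 Visual injury rating, 0–100 (0 = no effect, 100 = complete control), vs untreated controls ~10 days after postemergence spray; greenhouse; potted loam soil/sand; plants 2–10 cm, 1–2 leaf stage.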

[2] = system: blackgrass (Alopecurus myosuroides); assay: Test B postemergence plant response
Outline: as §1

[3] = system: rice (Oryza sativa); assay: Test C flooded paddy test plant response; details: Flood, 250 g ai/ha; scale of 0 to 100 where 0 is no effect and 100 is complete control; 13 to 15 days
Outline: (§2)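 Plants grown to the 2-leaf stage; pots flooded to 3 cm above soil, test compounds applied directly to paddy water, depth maintained throughout. Greenhouse for 13 to 15 days, then visual rating versus controls on a 0–100 scale (0 no effect, 100 complete control).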

[4] = system: barnyardgrass (Echinochloa crus-galli); assay: Test C flooded paddy test plant response; details: Flood, 250 g ai/ha; scale of 0 to 100 where 0 is no effect and 100 is complete control; 13 to 15 days
Outline: as §2

[5] = system: ducksalad (Heteranthera limosa); assay: Test C flooded paddy test plant response; details: Flood, 250 g ai/ha; scale of 0 to 100 where 0 is no effect and 100 is complete control; 13 to 15 days
Outline: as §2

[6] = system: small-flower umbrella sedge (Cyperus difformis); assay: Test C flooded paddy test plant response; details: Flood, 250 g ai/ha; scale of 0 to 100 where 0 is no effect and 100 is complete control; 13 to 15 days
Outline: as §2

[7] = system: giant foxtail (Setaria faberii); assay: Test B pre-/postemergence plant response
Description: (§3) Seeds of plant species selected from bamyardgrass (Echinochloa crus-galli), kochia (Kochia scoparia), ragweed (common ragweed, Ambrosia elatior), Italian ryegrass (Lolium multiflorum), large (Lg) crabgrass (Digitaria sanguinalis), giant foxtail (Setaria faberii), momingglory (Ipomoea spp.), pigweed (Amaranthus retroflexus), velvetleaf (Abutilon theophrasti), wheat (Triticum aestivum), and corn (Zea mays) were planted into a blend of loam soil and sand and treated preemergence with a directed soil spray using test chemicals formulated in a non-phytotoxic solvent mixture which included a surfactant. At the same time, plants selected from these crop and weed species and also blackgrass (Alopecurus myosuroides), and galium (catchweed bedstraw, Galium aparine) were planted in pots containing the same blend of loam soil and sand and treated with postemergence applications of test chemicals formulated in the same manner. Plants ranged in height from 2 to 10 cm and were in the one- to two-leaf stage for the postemergence treatment. Treated plants and untreated controls were maintained in a greenhouse for approximately 10 days, after which time all treated plants were compared to untreated controls and visually evaluated for injury. Plant response ratings, summarized in Table B, are based on a 0 to 100 scale where 0 is no effect and 100 is complete control. A dash (-) response means no test result.

[8] = system: barnyardgrass (Echinochloa crus-galli); assay: Test B pre-/postemergence plant response
Description: as §3

[9] = system: ragweed (common ragweed, Ambrosia elatior); assay: Test B pre-/postemergence plant response
Description: as §3

[10] = system: corn (Zea mays); assay: Test B pre-/postemergence plant response
Description: as §3

[11] = system: wheat (Triticum aestivum); assay: Test B pre-/postemergence plant response
Description: as §3

[12] = system: Italian ryegrass (Lolium multiflorum); assay: Test B pre-/postemergence plant response
Description: as §3

[13] = system: kochia (Kochia scoparia); assay: Test B pre-/postemergence plant response
Description: as §3

[14] = system: pigweed (Amaranthus retroflexus); assay: Test B pre-/postemergence plant response
Description: as §3

[15] = 125 g ai/ha, postemergence, 0 to 100 scale, 0 no effect, 100 complete control
[16] = Postemergence, 500 g ai/ha, 0 to 100 scale (0 no effect, 100 complete control)
[17] = Preemergence, 125 g ai/ha, 0 to 100 scale where 0 is no effect and 100 is complete control
[18] = Preemergence, 500 g ai/ha, 0 to 100 scale where 0 is no effect and 100 is complete control
[19] = 31 g ai/ha, Postemergence, 0 to 100 scale, 0 no effect, 100 complete control
[20] = 31 g ai/ha, Preemergence, 0 to 100 scale where 0 is no effect and 100 is complete control
[21] = Preemergence, 125 g ai/ha, 0 to 100 scale (0 no effect, 100 complete control)

| SMILES | Plant response rating, Galium [1, 15] | Plant response rating, Blackgrass [2, 15] | Rice plant response rating [3] | Barnyardgrass plant response rating [4] | Ducksalad plant response rating [5] | Sedge, Umbrella plant response rating [6] | Plant response rating, Foxtail, Giant [7, 15] | Plant response rating, Barnyardgrass [8, 15] | Plant response rating, Ragweed [9, 15] | Plant response rating, Corn [10, 15] | Plant response rating, Wheat [11, 15] | Plant response rating, Ryegrass, Italian [12, 15] | Plant response rating, Kochia [13, 15] | Plant response rating, Pigweed [14, 15] | Plant response rating, Blackgrass [2, 19] | Plant response rating, Foxtail, Giant [7, 19] | Plant response rating, Foxtail, Giant [7, 20] | Foxtail, Giant plant response rating [7, 21] | Plant response rating, Barnyardgrass [8, 19] | Plant response rating, Barnyardgrass [8, 20] | also measured |
| --- | --- | --- | --- | --- | --- | --- | --- | --- | --- | --- | --- | --- | --- | --- | --- | --- | --- | --- | --- | --- | --- |
| CC(C)n1ncnc1-c1ccccc1Oc1ncc(Cl)cn1 [Compound 123] | 0 | 0 | 0 | 0 | 0 | 30 | 0 | 0 | 0 | 0 | 0 | 0 | 0 | 0 | – | – | – | – | – | – | Plant response rating, Galium [1, 16]: 0; Plant response rating, Blackgrass [2, 16]: 0; Plant response rating, Foxtail, Giant [7, 16]: 0; Plant response rating, Foxtail, Giant [7, 17]: 0; Plant response rating, Foxtail, Giant [7, 18]: 0; Plant response rating, Barnyardgrass [8, 16]: 0; Plant response rating, Barnyardgrass [8, 17]: 0; Plant response rating, Barnyardgrass [8, 18]: 0; Plant response rating, Ragweed [9, 16]: 0; Plant response rating, Ragweed [9, 18]: 0; Plant response rating, Corn [10, 16]: 0; Plant response rating, Wheat [11, 16]: 0; Plant response rating, Ryegrass, Italian [12, 16]: 0; Plant response rating, Ryegrass, Italian [12, 18]: 0; Plant response rating, Kochia [13, 16]: 0; Plant response rating, Kochia [13, 17]: 0; Plant response rating, Kochia [13, 18]: 0; Plant response rating, Pigweed [14, 16]: 0; Plant response rating, Pigweed [14, 18]: 0 |
| Fc1ccc(-c2cc(C(F)(F)F)no2)c(Oc2ncc(Cl)cn2)c1 [Compound 124] | 100 | 30 | 0 | 0 | 80 | 85 | 20 | 20 | 20 | 10 | 0 | 0 | 80 | 90 | 0 | 0 | 20 | 100 | 0 | 0 | Barnyardgrass plant response rating [8, 21]: 30; Plant response rating, Ragweed [9, 20]: 0; Ragweed plant response rating [9, 21]: 10; Plant response rating, Corn [10, 19]: 0; Plant response rating, Ryegrass, Italian [12, 20]: 0; Ryegrass, Italian plant response rating [12, 21]: 10; Plant response rating, Kochia [13, 20]: 10; Kochia plant response rating [13, 21]: 60; Plant response rating, Pigweed [14, 20]: 40; Pigweed plant response rating [14, 21]: 100 |
| Fc1ccc(-c2cc(C(F)(F)F)no2)c(Oc2ncc(Br)cn2)c1 [Compound 125] | 100 | 30 | 0 | 0 | 80 | 90 | 20 | 30 | 20 | 10 | 0 | 10 | 80 | 90 | 10 | 0 | 10 | 90 | 10 | 0 | Barnyardgrass plant response rating [8, 21]: 50; Plant response rating, Ragweed [9, 20]: 0; Ragweed plant response rating [9, 21]: 0; Plant response rating, Corn [10, 19]: 0; Plant response rating, Ryegrass, Italian [12, 20]: 0; Ryegrass, Italian plant response rating [12, 21]: 10; Plant response rating, Kochia [13, 20]: 0; Kochia plant response rating [13, 21]: 40; Plant response rating, Pigweed [14, 20]: 0; Pigweed plant response rating [14, 21]: 80 |
| FC(F)(F)c1cc(-c2c(Cl)cccc2Oc2ncc(Cl)cn2)on1 [Compound 126] | 100 | 90 | 75 | 95 | 100 | 100 | 90 | 100 | 40 | 70 | 40 | 100 | 90 | 100 | 60 | 60 | 100 | 100 | 80 | 90 | Barnyardgrass plant response rating [8, 21]: 100; Plant response rating, Ragweed [9, 20]: 10; Ragweed plant response rating [9, 21]: 10; Plant response rating, Corn [10, 19]: 20; Plant response rating, Ryegrass, Italian [12, 20]: 40; Ryegrass, Italian plant response rating [12, 21]: 100; Plant response rating, Kochia [13, 20]: 80; Kochia plant response rating [13, 21]: 90; Plant response rating, Pigweed [14, 20]: 100; Pigweed plant response rating [14, 21]: 100 |
| FC(F)(F)c1cc(-c2c(Cl)cccc2Oc2ncc(Br)cn2)on1 [Compound 127] | 100 | 90 | 60 | 50 | 100 | 100 | 90 | 100 | 50 | 50 | 20 | 90 | 90 | 100 | 30 | 50 | 100 | 100 | 30 | 70 | Barnyardgrass plant response rating [8, 21]: 90; Plant response rating, Ragweed [9, 20]: 10; Ragweed plant response rating [9, 21]: 30; Plant response rating, Corn [10, 19]: 20; Plant response rating, Ryegrass, Italian [12, 20]: 30; Ryegrass, Italian plant response rating [12, 21]: 90; Plant response rating, Kochia [13, 20]: 80; Kochia plant response rating [13, 21]: 90; Plant response rating, Pigweed [14, 20]: 100; Pigweed plant response rating [14, 21]: 100 |
| FC(F)(F)COCc1cc(-c2ccccc2Oc2ncc(Cl)cn2)on1 [Compound 128] | 30 | 20 | 0 | 0 | 0 | 0 | 10 | 10 | 10 | 10 | 0 | 0 | 50 | 60 | 0 | 0 | 0 | 10 | 0 | 0 | Barnyardgrass plant response rating [8, 21]: 0; Plant response rating, Ragweed [9, 20]: 0; Ragweed plant response rating [9, 21]: 0; Plant response rating, Corn [10, 19]: 0; Plant response rating, Ryegrass, Italian [12, 20]: 0; Ryegrass, Italian plant response rating [12, 21]: 0; Plant response rating, Kochia [13, 20]: 0; Kochia plant response rating [13, 21]: 0; Plant response rating, Pigweed [14, 20]: 0; Pigweed plant response rating [14, 21]: 40 |
